Results on 16 compounds are retold here after patent US12084422B2, “Phenyl-n-quinoline derivatives for treating a RNA virus infection” (ABIVAX, priority 2018, dated 2024).

For one assay, the system named is RSV A2. In words: Screening for RSV inhibition using Viral ToxGlo assay in HEp-2 cells. The class given is cell-based. The following applies: human respiratory syncytial virus, HEp-2, 72 h. As to the method:
Protocol for Screening Antiviral Compounds for RSV Inhibition and Cytotoxicity Using Viral ToxGlo Assay
HEp-2 cells were maintained in Eagle's minimum essential medium (EMEM) with Earle's BSS adjusted to contain 2 mM L-glutamine, 10% fetal bovine serum, 100 U/ml penicillin and 100 μg/ml streptomycin. For the purposes of the screening assay they were grown to 90% confluency, trypsinized and recovered. The trypsin was neutralised with cell culture media and cells were centrifuged at 150×g for 5 minutes before discarding the supernatant and resuspending cell pellet in assay media (EMEM with Earle's BSS adjusted to contain 2 mM L-glutamine, 2% fetal bovine serum and 100 U/ml penicillin and 100 μg/ml streptomycin). The cells were seeded into white clear-bottomed cell culture plates at a density of 1.5×10^4 cells/well in 50 μl and 4×10^3 cells/well in 25 μl for 96 well plates and 384 well plates respectively. For the media/background control column assay media only was added. Cell plates were placed in a humid chamber and incubated overnight at 37° C./5% CO2. After overnight incubation cells were checked for confluency and healthy appearance.
Test articles were made up at 10× test concentration in a maximum DMSO concentration of 10% (final assay concentration maximal 1% DMSO) and added to the cell plates in volumes of 10 μl for 96 well plates and 5 μl for 384 well plates. For cell control and virus control wells the test article solvent only was added. Virus or assay media for cytotoxicity test wells and media/cell control wells was added immediately after test articles at an MOI of 0.5, 40 or 20 μl for 96 and 384 well plates respectively. Virus suspension was prepared by thawing RSV A2 frozen stocks and diluting to the required concentration of plaque forming units in assay media on ice.
Cell plates were further incubated inside a humid chamber for 72 h p.i at 37° C./5% CO2. After the incubation period cells were observed under the microscope to check for characteristic cytopathic effect in virus control wells and healthy cells in the cell control wells. After plates were adjusted to room temperature 20/40 μl Viral ToxGlo (Promega) was added to each well of the 384/96 well cell plates. Plates were incubated at room temperature, protected from light on a plate rocker for 20 minutes before measuring the luminescence on a spectrophotometer (Biotek Synergy HTX).
RSV inhibition was calculated as percentage of cytopathic effect inhibition relative to the virus control and cytotoxicity as percentage of cell survival relative to cell control wells. This allowed EC50 values to be calculated for each test article where a virus inhibition or cytotoxic dose response was identified. EC50 values ranging between 0.001 µM and 5 μM could thus be determined for compounds 1, 6, 10, 13, 28, 38, 43, 47, 48, 49, 50, 51, 52, 53, 54, 55, 56 and 57.

Assay [1] has as its system Chikungunya Virus (CHIKV) strain LR2006-OPY1 with GFP modification (CHIK 5'LR). Nature of the assay: Inhibition of Chikungunya virus (CHIKV) production in infected HEK293T cell line (GFP fluorescence). Type of assay: cell-based. Conditions: HEK-293T, infected HEK293T cells; for inhibition at 1 µM: compounds at 1 μM, MOI 0.1, 22 h, values above 100 lowered to 100, read-out: % CHIKV Inhibition Mean (n = 2); for IC50: second round of experiments. As to the method: The ability of the compounds to inhibit viral replication was assessed with an experiment in which infected cells were treated by compounds of formula (I) at 1 μM. As a positive control for inhibition of Chikungunya, Ribavirin was used. Toxicity of the compounds was assessed in parallel.
Human embryonic kidney cells 293T (HEK293T, CRL-11268) were maintained in Dulbecco's modified Eagle's Medium (DMEM, 31966-021, Thermo Fisher Scientific) supplemented with 10% of fetal bovine serum (FBS), penicillin and streptomycin. After removal of the medium, cells were washed with a Ca^2+- and Mg^2+-free salt solution to remove all traces of serum. After aspiration of wash solution, cells were dissociated with 0.25% Trypsin-EDTA solution and incubated 30 s at least in 37° ° C. incubator. Concentration of cell suspension was determined by an automatic cell counter (EVE, NanoEntek) and, if needed, adjusted to 0.33×10^6 cells/mL with DMEM medium supplemented with 10% FBS.
100 μL of the cell suspension were dispatched in a ViewPlate-96 Black (6005182, PerkinElmer) and in a transparent 96-well cell culture plate (655180, Greiner bio-one). After an incubation for 24 h at 37° C. under 5% of CO2, compounds were added at the proper concentration.
An intermediate dilution was prepared with DMSO (D8418, Sigma) at 2 mM in a 96-well V-bottom microplate from the stock solution:
Mix 1 μL of the 50 mM stock library in 25 μL of DMSO.
Mix 2 μL of the 25 mM stock library in 25 μL of DMSO.
An intermediate dilution was prepared with DMSO (D8418, Sigma) at 25 mM in a 96-well V-bottom microplate from the stock solution:
Mix 2 μL of the 50 mM stock library in 2 μL of DMSO.
Serial dilutions were performed in 2 μL of DMSO 13 times to reach 0.0015 mM as follows in table III:
For both screen and determination of IC50 1 μL of each solution was added in a 1 mL Masterblock 96 wells (Greiner bio-one, 780261) containing 1 mL of DMEM medium. As a positive control, 5 μL of a 80 mM Ribavirin solution (R9644, Sigma) is added to 1 mL of DMEM. On the other hand, DMSO is used as a negative control.
[…]. Vector Borne Zoonotic Dis. 2006; 6(4)). This modified virus was used to infect cells at MOI 0.1. […].
Medium was removed after 22 h at 37° ° C. under 5% of CO2 and cells were washed as described above. 60 μL of RIPA buffer (50 mM Tris-HCl pH8, 100 mM NaCl, 1 mM MgCl2, 1% Triton X-100) was added to cells and incubated for at least 20 min before reading fluorescence signal. Pierce 660 nm Protein Assay Reagent (22660, Thermo scientific) was used to normalize fluorescence signal by protein quantity.
A first round of experiments has been performed wherein the results are expressed as inhibition percentage, which is calculated as follows, through the following steps:
1. Fluorescence intensity (FI) 509 nm/Absorbance 660 nm (A660)=A
This ratio allows considering the infection (GFP virus) to the protein amount.
2. A′=A—background noise of non-infected plate,
3. B=Fluorescence intensity (FI)/Absorbance 660 nm (A660) of infected but non treated plates,
4. C=A′/B which is then converted as the percentage of infection after treatment, compared to non-treated sample, and subsequently as the […]. For instance, a value of 100 in Table IV here below means that, after treatment, the signal attributed to GFP fluorescence is abolished, which is correlated to the absence of infection.
This value corresponds to the inhibition's percentage.
The following Table IV encompasses said C′ value for some compounds as calculated above with a mean of 2 experiments, and the corresponding standard deviation.
Some values were originally above 100. In these cases, the value has been lowered to 100. This means that some molecules also have an impact on the viability of the cells. In other words, the A value may be lower than the background noise.
Moreover, for each measure, the test was performed with Ribavirin as control. The value of the inhibition percentage was checked, giving 100%.

Another assay concerns DENV-2 strain 16681. Nature of the assay: Screening for DENV-2 inhibition using Viral ToxGlo assay in A549 cells. Type of assay: cell-based, Dengue 2 virus. The following applies: Dengue virus, DENV2, A549, 120 h, read-out: % DENV-2 Inhibition Mean (n = 3). Here is the method:
Protocol for Screening Antiviral Compounds for DENV-2 Inhibition and Cytotoxicity Using Viral ToxGlo Assay
A549 cells were maintained in Dulbecco's Modified Eagle Medium (DMEM) supplemented with 10% fetal bovine serum, 100 U/ml penicillin and 100 μg/ml streptomycin. For the purposes of the screening assay they were grown to 90% confluency, trypsinized and recovered. The trypsin was neutralised with cell culture media and cells were centrifuged at 150×g for 5 minutes before discarding the supernatant and resuspending cell pellet in assay media (DMEM supplemented with 2% fetal bovine serum and 100 U/ml penicillin and 100 μg/ml streptomycin). The cells were seeded into 96-well white clear-bottomed cell culture plates at a density of 1.0×10^4 cells/well in 50 μl. For the media/background control column assay media only was added. Cell plates were placed in a humid chamber and incubated overnight at 37° C./5% CO2. After overnight incubation cells were checked for confluency and healthy appearance.
Test compounds were prepared at a final concentration of 10 μM, in a maximum DMSO concentration of 1% (final assay concentration maximal 0.1% DMSO) and added to the cell plates in volumes of 10 μl. For cell control and virus control wells the test article solvent only was added. As a positive inhibition control, 7-Deaza-2′-C-methyladenosine was added at 100 μM in 3 wells. Virus (DENV-2 strain 16681) or assay media for cytotoxicity test wells and media/cell control wells was added immediately after test articles at an MOI of 0.5, 40 for 96 well plates respectively. Virus suspension was prepared by thawing DENV-2 frozen stocks and diluting to the required concentration of plaque forming units in assay media.
Cell plates were further incubated inside a humid chamber for 5 days p.i at 37° C./5% CO2. After the incubation period cells were observed under the microscope to check for characteristic cytopathic effect in virus control wells and healthy cells in the cell control wells. After plates were adjusted to room temperature 20 μl Viral ToxGlo (Promega) was added to each well of the 96-well cell plates. Plates were incubated at room temperature for 5 minutes before measuring the luminescence on a spectrophotometer (Envision, PerkinElmer).
DENV-2 inhibition was calculated as percentage of cytopathic effect inhibition relative to the virus control and cytotoxicity as percentage of cell survival relative to cell control wells.

`Cc1cc(OC(C)C)c(C2CC2)cc1Nc1ccc2cccc(Cl)c2n1` [Compound 48, 8-chloro-N-(5-cyclopropyl-4-isopropoxy-2-methylphenyl)quinolin-2-amine]: the EC50 in the assay with RSV A2 came to 360 nM. `Cc1c(Nc2ccc3cccc(Cl)c3n2)cccc1OC(C)C` [Compound 49, 8-chloro-N-(3-isopropoxy-2-methylphenyl)quinolin-2-amine]: in the assay with RSV A2, the EC50 amounted to 513 nM. Regarding `Cc1cc(Oc2ccc(O)cc2F)ccc1Nc1ccc2ccccc2n1` [Compound 53, 3-fluoro-4-(3-methyl-4-(quinolin-2-ylamino)phenoxy)phenol], the EC50 in the assay with RSV A2 came to 196 nM. On to `Cc1ccc(Oc2ccc(Nc3ccc4ccccc4n3)cc2)cc1` [Compound 28, N-(4-(p-tolyloxy)phenyl)quinolin-2-amine], for which the EC50 in the assay on RSV A2 was 1780 nM. On the same count and under the same terms, as for `Cc1cc(Oc2ccc3ccccc3c2)ccc1Nc1ccc2cccc(Cl)c2n1` [Compound 57, 8-chloro-N-(2-methyl-4-(naphthalen-2-yloxy)phenyl)quinolin-2-amine], the figure is 473 nM. Regarding `CCCc1cc(OC(F)(F)F)ccc1Nc1ccc2cccc(Cl)c2n1` [Compound 6, 8-chloro-N-(2-propyl-4-(trifluoromethoxy)phenyl)quinolin-2-amine], in assay [1], the inhibition at 1 µM was determined as 100% and the concentration for half-maximal inhibition (IC50) lay within 1 to 200 nM. Also, the concentration giving a half-maximal response (EC50) in the assay on RSV A2 stood at 1210 nM. On to `Clc1cccc2ccc(Nc3ccc(OC4CCC4)cc3C3CC3)nc12` [Compound 42, 8-chloro-N-(4-cyclobutoxy-2-cyclopropylphenyl)quinolin-2-amine], for which, in assay [1], the half-inhibitory concentration (IC50) fell in the range of 1 to 200 nM. Moreover, the inhibition at 10 µM in the assay with DENV-2 strain 16681 was 84%. Turning to `Cc1c(Nc2ccc3cccc(Cl)c3n2)cccc1OCc1ccccc1` [Compound 50, N-(3-(benzyloxy)-2-methylphenyl)-8-chloroquinolin-2-amine], in the assay with RSV A2, the concentration giving a half-maximal response (EC50) is 283 nM. The same measure, in the same setting: next, `COc1ccc(Oc2ccc(Nc3ccc4ccccc4n3)c(C)c2)cc1` [Compound 51, N-(4-(4-methoxyphenoxy)-2-methylphenyl)quinolin-2-amine]: 412 nM. As for `Cc1cc(Oc2ccccc2F)ccc1Nc1ccc2ccccc2n1` [Compound 38, N-(4-(2-fluorophenoxy)-2-methylphenyl)quinolin-2-amine], in assay [1], the inhibition at 1 µM was determined as 98% and the IC50 was 1 to 200 nM. For the same compound, the EC50 in the assay with RSV A2 is 200 nM. For the compound `Cc1cc(OC(F)(F)F)ccc1Nc1ccc2cccc(Cl)c2n1` [Compound 1, 8-chloro-N-(2-methyl-4-(trifluoromethoxy)phenyl)quinolin-2-amine], the inhibition at 1 µM in assay [1] worked out at 97%. Also, the EC50 with RSV A2 turned out to be 3310 nM. Turning to `Cc1c(Nc2ccc3cccc(Cl)c3n2)cccc1Oc1ccccc1` [Compound 55, 8-chloro-N-(2-methyl-3-phenoxyphenyl)quinolin-2-amine], the EC50 with RSV A2 was found to be 192 nM.

Turning to `CCc1cc(Oc2ccccc2F)ccc1Nc1ccc2ccccc2n1` [Compound 39, N-(2-ethyl-4-(2-fluorophenoxy)phenyl)quinolin-2-amine], in assay [1], the inhibition at 1 µM is 99% and the concentration for half-maximal inhibition (IC50) lay in the range of 1 to 200 nM. Further, the inhibition at 10 µM in the assay on DENV-2 strain 16681 came out at 104%. For the compound `COc1ccc(Oc2ccc(Nc3ccc4ccccc4n3)c(C3CC3)c2)c(F)c1` [Compound 52, N-(2-cyclopropyl-4-(2-fluoro-4-methoxyphenoxy)phenyl)quinolin-2-amine], the half-maximal effective concentration (EC50) in the assay with RSV A2 is 344 nM. Turning to `Cc1cc(OC2CCC2)ccc1Nc1ccc2cccc(Cl)c2n1` [Compound 22, 8-chloro-N-(4-cyclobutoxy-2-methylphenyl)quinolin-2-amine], in assay [1], the inhibition at 1 µM was determined as 100% and the IC50 was 1 to 200 nM. Moreover, the inhibition at 10 µM in the assay on DENV-2 strain 16681 was 82%.

Take `CCOc1ccc(Nc2ccc3cccc(Cl)c3n2)c(C)c1` [Compound 12, 8-chloro-N-(4-ethoxy-2-methylphenyl)quinolin-2-amine]: the inhibition at 1 µM in assay [1] was found to be 95%. In addition, the inhibition at 10 µM in the assay on DENV-2 strain 16681 stood at 129%.
